Experiment: Stability of cephalosporin C solution without thiol on heating
Format: physicochemical
Conditions: aqueous cephalosporin C solution without the thiol, 80° C.

CC(=O)OCC1=C(C(=O)O)N2C(=O)C(NC(=O)CCC[C@@H](N)C(=O)O)[C@H]2SC1 (stereo partly drawn) [cephalosporin C, 3-acetoxymethyl-7-(D-5-amino-5-carboxypentan amido)-ceph-3-em-4-carboxylic acid]
time to complete degradation (β-lactam ring degradation): ≤ 40 min
